Measured values from ChEMBL document CHEMBL1158655, “Plant anticancer agents. IX. Constituents of Hyptis tomentosa” (1979).
Values after ≈ are worked out from the molar mass of the structure shown.

What follows are compounds tested on KB (assay: Cytotoxicity against human KB cells). Conditions: read-out: ED50 (the source's name).
Assay type: functional

`COc1ccc(-c2cc(=O)c3c(O)c(OC)c(OC)cc3o2)cc1OC` and `COc1ccc(-c2cc(=O)c3c(O)c(OC)c(OC)cc3o2)cc1O` [EUPATORIN] cannot be ordered by EC50: > 100 µg/mL for the first, > 50 µg/mL for the second.

First: COc1ccc(-c2oc3c(OC)c(OC)c(OC)c(O)c3c(=O)c2OC)cc1 [5-HYDROXYAURANETIN]
Second: COc1ccc(-c2cc(=O)c3c(O)c(OC)c(OC)c(OC)c3o2)cc1 [GARDENIN B]
The EC50 of the first is 3.3-fold lower: 1.8 µg/mL (≈ 4.63 µM) for the first, 6 µg/mL (≈ 16.7 µM) for the second.

Going from `COc1cc([C@@H]2c3cc4c(cc3C[C@H]3COC(=O)[C@@H]32)OCO4)cc(OC)c1OC` [DESOXYPODOPHYLLOTOXIN] to `c1cc2c(cc1[C@H]1OC[C@H]3[C@@H]1CO[C@@H]3c1ccc3c(c1)OCO3)OCO2` [SESAMIN], the EC50 rises from 0.032 µg/mL (≈ 0.0803 µM) to > 100 µg/mL.
